The values below come from patent publication US10206907B2, “Compounds useful for the treatment of degenerative and inflammatory diseases” (GALAPAGOS NV, priority 2008, dated 2019).

pEC50, pIC50: −log10 of the molar value.

Data set [1] deals with JAK-STAT signalling in HeLa cells. As to the kind of experiment: JAK-STAT signalling assay (OSM-triggered pSTAT1(2)-luciferase reporter in HeLa cells). Format: cell-based. The following applies: Homo sapiens; HeLa cells, OSM-triggered pSTAT1(2)-luciferase reporter; read-out: STAT signalling EC50. An outline of the steps:
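Read-out is oncostatin M–driven pSTAT1(2)-luciferase activity, corrected by co-transfected LacZ β-galactosidase, in transiently transfected HeLa cells cultured overnight at 37 °C, 10% CO2. Inhibition percentages against positive and negative controls were plotted across doses to derive EC50.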

Data set [2] has as its system MMP13 in SW1353 cells. As to the kind of experiment: OSM/IL-1β signaling assay (MMP13 levels in SW1353 cells).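 Also: secreted MMP13 captured by antibody, activated with APMA and its activity read by fluorescence, inhibition scaled between vehicle-treated triggered wells (0%) and untriggered wells (100%).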 Conditions: Homo sapiens; SW1353 cells, OSM and IL-1β triggered, MMP13 levels 48 hours after triggering; read-out: MMP13 EC50. Format: cell-based.
Description: The cells were seeded in 96 well plates at 15,000 cells/well in a volume of 120 μL DMEM (Invitrogen) containing 10% (v/v) FBS and 1% penicillin/streptomycin (InVitrogen) incubated at 37° C. […] MMP13 activity was measured using an antibody capture activity assay. […] Next the wells were washed twice with PBS+0.05% Tween followed by MMP13 activation by addition of 35 μL of a 1.5 mM 4-Aminophenylmercuric acetate (APMA) (Sigma, A9563) solution and incubation at 37° C. for 1 hour. […] Percentage inhibition=((fluorescence determined in the presence of vehicle−fluorescence determined for sample with test compound present) divided by (fluorescence determined in the presence of vehicle−fluorescence determined for sample without trigger))*100%.
In data set [3] the test system is TNF-alpha release. Kind of data set: Septic shock model (LPS-induced TNF release). The class given is in vivo, mouse. Conditions: 30 mg/kg po, BALB/cJ mice, LPS ip; statistically significant. As to the method: Injection of lipopolysaccharide (LPS) induces a rapid release of soluble tumour necrosis factor (TNF-alpha) into the periphery. This model is used to analyse prospective blockers of TNF release in vivo.
Six BALB/cJ female mice (20 g) per group were treated at the intended dosing once, po. Thirty minutes later, LPS (15 μg/kg; E. Coli serotype 0111:B4) was injected ip. Ninety minutes later, mice were euthanized and blood was collected. Circulating TNF alpha levels were determined using commercially available ELISA kits. Dexamethasone (5 μg/kg) was used as a reference anti-inflammatory compound. Selected compounds are tested at one or multiple doses, e.g. 3 and/or 10 and/or 30 mg/kg, po.

Data set [4] in a line: Microsomal stability, human liver microsomes. Format: in vitro ADME. Conditions: percentage of compound remaining after 60 minutes, 3 μM compound. The method, boiled down:
(§1)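 Percent parent remaining after 60 min was determined by LCMS against a time-zero sample quenched before microsome addition. Incubations ran at 37°C with liver microsomes and a G6PDH-based NADPH-regenerating cofactor mix. Quench was MeOH or ACN (1:1).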

Data set [5] can be described thus: Microsomal stability, rat liver microsomes. The following applies: percentage of compound remaining after 60 minutes, 3 μM compound. The class given is in vitro ADME. An outline of the steps:
as §1

Data set [6] is described as follows: Caco2 permeability (bi-directional). The class given is in vitro ADME, human. Conditions: human, pH 7.4; for efflux ratio at 1 h, 10 µM: Caco-2, ratio of PappB>A/PappA>B; for Papp A→B at 1 h, 10 µM: Caco-2, apical to basolateral, read-out: Papp (A2B). The method, boiled down: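 Compound concentrations in both chambers were measured by LC-MS/MS after 1 h incubation at 37 °C on an orbital shaker. Efflux ratio is PappB>A over PappA>B. Lucifer Yellow (50 μM in donor) confirmed layer integrity, with permeability of ≤100 nm/s required.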

Data set [7] has as its target Recombinant human JAK1 catalytic domain (Homo sapiens (Human), UniProt P23458). Kind of data set: JAK1 inhibition assay. Format: biochemical. The following applies: semi-quantitative score. An outline of the steps:
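IC50 values come from dose-response series, with each point expressed as percent inhibition of cpm. Vehicle sets full activity and 10 μM staurosporine sets background. Incorporated radioactivity counted by scintillation after washing with 75 mM phosphoric acid.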

The target in data set [8] is Recombinant human JAK2 catalytic domain (Homo sapiens (Human), UniProt O60674). Kind of data set: JAK2 inhibition assay. The class given is biochemical. Conditions: semi-quantitative score. An outline of the steps:
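Activity was taken as vehicle cpm minus cpm with 10 μM staurosporine, and inhibition was expressed on that scale. Incubation was 90 min at 30 °C, followed by acid quench, phosphoric acid washes and Microscint counting. Compounds were tested as dose series to obtain IC50.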

For data set [9], the target named is Recombinant human JAK3 catalytic domain (Homo sapiens (Human), UniProt P52333). Kind of data set: JAK3 inhibition assay. Format: biochemical. Conditions: semi-quantitative score.
In data set [10] the target is Recombinant human TYK2 catalytic domain (Homo sapiens (Human), UniProt P29597). Kind of data set: TYK2 inhibition assay. The class given is biochemical. Conditions: semi-quantitative score. As to the method:
After 90 min at 30° C., reactions were stopped by adding of 25 μL/well of 150 mM phosphoric acid. […] Plates were washed 6 times with 300 μL per well of a 75 mM phosphoric acid solution and the bottom of the plates was sealed. 40 μL/well of Microscint-20 was added, the top of the plates was sealed and readout was performed using the Topcount (Perkin Elmer). Kinase activity was calculated by subtracting counts per minute (cpm) obtained in the presence of a positive control inhibitor (10 μM staurosporine) from cpm obtained in the presence of vehicle. The ability of a test compound to inhibit this activity was determined as: Percentage inhibition=((cpm determined for sample with test compound present−cpm determined for sample with positive control inhibitor) divided by (cpm determined in the presence of vehicle−cpm determined for sample with positive control inhibitor))*100%.
Dose dilution series were prepared for the compounds enabling the testing of dose-response effects in the TYK2 assay and the calculation of the IC50 for each compound.

Recombinant human JAK1 catalytic domain, sequence (P23458 850-1154): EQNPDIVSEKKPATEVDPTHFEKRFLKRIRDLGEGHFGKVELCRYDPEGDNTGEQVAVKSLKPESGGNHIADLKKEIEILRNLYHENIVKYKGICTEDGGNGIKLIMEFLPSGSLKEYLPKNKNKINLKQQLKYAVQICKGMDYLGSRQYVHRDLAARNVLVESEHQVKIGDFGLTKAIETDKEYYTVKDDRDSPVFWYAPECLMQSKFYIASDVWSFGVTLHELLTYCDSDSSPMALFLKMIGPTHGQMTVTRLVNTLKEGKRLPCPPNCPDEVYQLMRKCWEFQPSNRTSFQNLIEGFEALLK
Recombinant human JAK2 catalytic domain, sequence (O60674 808-1132): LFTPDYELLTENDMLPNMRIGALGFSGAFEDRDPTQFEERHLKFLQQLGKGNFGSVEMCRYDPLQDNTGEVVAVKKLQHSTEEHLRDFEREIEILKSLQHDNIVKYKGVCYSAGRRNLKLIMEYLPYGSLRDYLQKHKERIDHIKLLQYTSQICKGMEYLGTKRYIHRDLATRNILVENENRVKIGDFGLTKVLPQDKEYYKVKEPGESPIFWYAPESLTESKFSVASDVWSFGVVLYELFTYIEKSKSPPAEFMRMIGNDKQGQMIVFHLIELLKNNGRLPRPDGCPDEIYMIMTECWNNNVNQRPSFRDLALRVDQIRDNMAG
Recombinant human TYK2 catalytic domain, sequence (P29597 871-1187): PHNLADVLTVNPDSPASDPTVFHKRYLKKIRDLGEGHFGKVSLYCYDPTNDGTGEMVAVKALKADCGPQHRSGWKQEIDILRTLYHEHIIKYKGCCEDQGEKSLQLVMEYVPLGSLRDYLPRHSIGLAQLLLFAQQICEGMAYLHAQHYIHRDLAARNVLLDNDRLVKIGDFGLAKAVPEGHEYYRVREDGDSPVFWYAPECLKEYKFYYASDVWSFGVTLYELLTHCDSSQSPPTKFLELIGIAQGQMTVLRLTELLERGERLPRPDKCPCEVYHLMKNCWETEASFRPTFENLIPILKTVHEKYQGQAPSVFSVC
Recombinant human JAK3 catalytic domain, sequence (P52333 781-1124): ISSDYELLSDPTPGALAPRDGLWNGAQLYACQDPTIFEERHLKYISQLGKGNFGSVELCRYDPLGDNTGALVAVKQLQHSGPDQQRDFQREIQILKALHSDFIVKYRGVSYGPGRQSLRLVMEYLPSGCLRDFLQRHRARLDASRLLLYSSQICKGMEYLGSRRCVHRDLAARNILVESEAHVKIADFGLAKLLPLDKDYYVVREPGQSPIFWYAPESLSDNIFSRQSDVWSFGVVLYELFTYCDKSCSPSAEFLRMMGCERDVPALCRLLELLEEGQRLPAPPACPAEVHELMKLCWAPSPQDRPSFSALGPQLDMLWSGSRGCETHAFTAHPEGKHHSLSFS

Take `O=C(Nc1nc2cccc(-c3ccc(OCc4cccnc4)cc3)n2n1)C1CC1` [Compound 36, N-(5-(4-(pyridin-3-ylmethoxy)phenyl)-[1,2,4]triazolo[1,5-a]pyridin-2-yl)cyclopropanecarboxamide]: the pEC50 in [1] is 6.30 to 7.00; in [2] it was 6.00 to 6.30. Further, the “reduction in the TNF release” value in data set [3] is reported as over 50%. For the same molecule, in data set [4], the “Microsomal Stability Human (%)” value was “* (* 0-25)”. In data set [5], the “Microsomal Stability Rat (%)” value was “*** (*** 51-75)”. Also, the efflux ratio at 1 h, 10 µM in data set [6] turned out to be 0.89.
On to `O=C(Nc1nc2cccc(-c3ccc(OCc4ccccn4)cc3)n2n1)C1CC1` [Compound 37, N-(5-(4-(pyridin-2-ylmethoxy)phenyl)-[1,2,4]triazolo[1,5-a]pyridin-2-yl)cyclopropanecarboxamide], for which the negative-log EC50 (pEC50) in data set [1] is 6.00 to 6.30; in data set [2], under 6.00. In [3], the “reduction in the TNF release” value was over 50%. Moreover, the “Microsomal Stability Human (%)” value in data set [4] was “*** (*** 51-75)”. Besides, the “Microsomal Stability Rat (%)” value in data set [5] is reported as “*** (*** 51-75)”.
As for `O=C(Nc1nc2cccc(-c3ccc(C(=O)N4CCC(C(F)(F)F)CC4)cc3)n2n1)C1CC1` [Compound 148, N-(5-(4-(4-(trifluoromethyl)piperidine-1-carbonyl)phenyl)-[1,2,4]triazolo[1,5-a]pyridin-2-yl)cyclopropanecarboxamide], the pIC50 in [7] was over 7.00. In addition, the pEC50 in data set [1] and in data set [2] was under 6.00 each time. The “reduction in the TNF release” value in [3] is reported as over 50%. Also, in [4], the “Microsomal Stability Human (%)” value was “*** (*** 51-75)”. For the same molecule, the “Microsomal Stability Rat (%)” value in data set [5] is recorded as “** (** 26-50)”.
As to `Cc1ccc(COc2ccc(-c3cccc4nc(NC(=O)C5CC5)nn34)cc2)cn1` [Compound 197, Cyclopropanecarboxylic acid {5-[4-(6-methyl-pyridin-3-ylmethoxy)-phenyl]-[1,2,4]triazolo[1,5-a]pyridin-2-yl}-amide], the pIC50 in data set [7] and in data set [8] was over 7.00 in each case. For the same molecule, the results for the negative logarithm of the EC50 (pEC50) in [1] and in [2] were 6.30 to 7.00 and under 6.00, respectively. Further, in [3], the “reduction in the TNF release” value is on record as over 50%. Further, in data set [4], the “Microsomal Stability Human (%)” value is on record as “** (** 26-50)”. The “Microsomal Stability Rat (%)” value in data set [5] is reported as “*** (*** 51-75)”.
With `O=C(Nc1nc2cccc(-c3ccc(C(=O)N4CCS(=O)(=O)CC4)cc3)n2n1)C1CC1` [Compound 207, Cyclopropanecarboxylic acid {5-[4-(1,1-dioxo-thiomorpholine-4-carbonyl)-phenyl]-[1,2,4]triazolo[1,5-a]pyridin-2-yl}-amide], the pIC50 in [7] and in [8] was over 7.00 in each case. Further, the negative logarithm of the EC50 (pEC50) in data set [1] and in data set [2] was under 6.00 in each case. For the same molecule, the “reduction in the TNF release” value in data set [3] is given as over 50%. The “Microsomal Stability Human (%)” value in [4] is on record as “**** (**** 76-100)”. In addition, the “Microsomal Stability Rat (%)” value in [5] is listed as “**** (**** 76-100)”. Besides, the Papp A→B at 1 h, 10 µM in data set [6] came to 0.05 ×10⁻⁶ cm/s. Moreover, the efflux ratio at 1 h, 10 µM in data set [6] was determined as 104.
In the case of `CC(=O)N(Cc1ccccn1)c1ccc(-c2cccc3nc(NC(=O)C4CC4)nn23)cc1` [Compound 208, Cyclopropanecarboxylic acid {5-[4-(acetyl-pyridin-2-ylmethyl-amino)-phenyl]-[1,2,4]triazolo[1,5-a]pyridin-2-yl}-amide], the pIC50 in data set [7] and in [8] was over 7.00 each time. Also, the negative-log EC50 (pEC50) in [1] and in data set [2] was under 6.00 in each case. Moreover, the “reduction in the TNF release” value in data set [3] is over 50%. The “Microsomal Stability Human (%)” value in [4] is reported as “*** (*** 51-75)”. The “Microsomal Stability Rat (%)” value in data set [5] is listed as “**** (**** 76-100)”.
For the molecule `O=C(Nc1nc2cccc(-c3ccc(CNc4ncccn4)cc3)n2n1)C1CC1` [Compound 229, Cyclopropanecarboxylic acid {5-[4-(pyrimidin-2-ylaminomethyl)-phenyl]-[1,2,4]triazolo[1,5-a]pyridin-2-yl}-amide], the pIC50 in data set [7] and in [8] was over 7.00 in each case. Further, the negative logarithm of the EC50 (pEC50) in [1] and in [2] was 6.00 to 6.30 in each case. For the same molecule, the “reduction in the TNF release” value in data set [3] is reported as over 50%. For the same molecule, the “Microsomal Stability Human (%)” value in data set [4] is recorded as “*** (*** 51-75)”. Besides, in [5], the “Microsomal Stability Rat (%)” value is “*** (*** 51-75)”. In [6], the Papp A→B at 1 h, 10 µM was determined as 25.9 ×10⁻⁶ cm/s. In addition, the efflux ratio at 1 h, 10 µM in data set [6] was found to be 1.6.
As to `O=C(Nc1nc2cccc(-c3ccc(C(=O)N4CCC(F)(F)C4)cc3)n2n1)C1CC1` [Compound 271, Cyclopropanecarboxylic acid (5-[4-(3,3-difluoro-pyrrolidine-1-carbonyl)-phenyl]-[1,2,4]triazolo[1,5-a]pyridin-2-yl}-amide], the negative logarithm of the IC50 (pIC50) in [7] is over 7.00; in data set [8], over 7.00; in data set [9], 6.30 to 7.00; in data set [10], over 7.00. Also, the negative-log EC50 (pEC50) is 6.30 to 7.00 in [1] and 6.00 to 6.30 in [2]. Moreover, in [4], the “Microsomal Stability Human (%)” value is on record as “**** (**** 76-100)”. In data set [5], the “Microsomal Stability Rat (%)” value is “**** (**** 76-100)”. Further, in [6], the Papp A→B at 1 h, 10 µM was determined as 4 ×10⁻⁶ cm/s. Moreover, in data set [6], the efflux ratio at 1 h, 10 µM was found to be 13.
`O=C(Nc1nc2cccc(-c3ccc(CNc4ccon4)cc3)n2n1)C1CC1` [Compound 302, Cyclopropanecarboxylic acid {5-[4-(isoxazol-3-ylaminomethyl)-phenyl]-[1,2,4]triazolo[1,5-a]pyridin-2-yl}-amide]: the pIC50 in data set [7] is over 7.00; in [8] it was over 7.00; in data set [9], 6.30 to 7.00; in data set [10], over 7.00. The negative-log EC50 (pEC50) was 6.30 to 7.00 in [1] and under 6.00 in data set [2]. Besides, the “Microsomal Stability Human (%)” value in data set [4] is reported as “*** (*** 51-75)”. Also, the “Microsomal Stability Rat (%)” value in data set [5] is on record as “*** (*** 51-75)”. The Papp A→B at 1 h, 10 µM in [6] was 8.45 ×10⁻⁶ cm/s. Besides, in data set [6], the efflux ratio at 1 h, 10 µM was 5.98.
For the molecule `NC(=O)c1ccccc1NCc1ccc(-c2cccc3nc(NC(=O)C4CC4)nn23)cc1` [Compound 306, 2-{4-[2-(Cyclopropanecarbonyl-amino)-[1,2,4]triazolo[1,5-a]pyridin-5-yl]-benzylamino}-benzamide], the pIC50 in data set [7], in data set [8], in data set [9] and in data set [10] was over 7.00 throughout. The negative-log EC50 (pEC50) in data set [1] is 6.30 to 7.00; in data set [2], 6.00 to 6.30. Also, the “Microsomal Stability Human (%)” value in [4] was “*** (*** 51-75)”. Moreover, in data set [5], the “Microsomal Stability Rat (%)” value is recorded as “** (** 26-50)”. Further, the Papp A→B at 1 h, 10 µM in data set [6] was 6.55 ×10⁻⁶ cm/s. Besides, the efflux ratio at 1 h, 10 µM in data set [6] turned out to be 6.55.
Take `O=C(Nc1nc2cccc(-c3ccc(CC(=O)N4CC(F)(F)C4)cc3)n2n1)C1CC1` [Compound 317, Cyclopropanecarboxylic acid (5-{4-[2-(3,3-difluoro-azetidin-1-yl)-2-oxo-ethyl]-phenyl}-[1,2,4]triazolo[1,5-a]pyridin-2-yl)-amide]: the pIC50 in data set [7] was over 7.00; in data set [8], over 7.00; in data set [9], under 6.00; in data set [10], 6.30 to 7.00. Further, the negative logarithm of the EC50 (pEC50) in [1] is 6.00 to 6.30; in data set [2], under 6.00. Besides, in data set [4], the “Microsomal Stability Human (%)” value is recorded as “**** (**** 76-100)”. The “Microsomal Stability Rat (%)” value in data set [5] was “*** (*** 51-75)”. In addition, in data set [6], the Papp A→B at 1 h, 10 µM is 4.3 ×10⁻⁶ cm/s. In addition, in [6], the efflux ratio at 1 h, 10 µM is 10.1.
